Data taken from patent publication US20030181527A1, “Novel formulations of alpha-2,4-disulfophenyl-n-tert-butylnitrone” (priority 2000, published 2003).

Experiments:
[1] = Stability after purging with different air/nitrogen gas mixtures; type: physicochemical; conditions: 400 mg/ml, pH 8.5; for Final Amount of Aldehyde (II) / Final Amount of Related Substances: 2 months +40° C./75% RH
Experimental: A concentrated aqueous solution of α-(2,4-disulfophenyl)-N-tert-butylnitrone disodium salt (400 mg/ml) and disodium hydrogen phosphate (5.3 mM) at pH 8.5 was purged with different levels of air/nitrogen gas mixtures. The solutions were stored in sealed 10 ml glass vials with a fill volume of 7 ml. The samples were stored for two months at +40° C. and 75% relative humidity.

[2] = Stability of buffered and unbuffered solutions and concentrates at room temperature; type: physicochemical
Excerpt: In a further study the stability of both buffered (sodium hydrogen carbonate) and unbuffered aqueous solutions and concentrates of α-(2,4-disulfophenyl)-N-tert-butylnitrone disodium salt stored at room temperature were compared. […] The buffered solutions show no apparent concentration dependent decomposition due to the short storage time and moderate storage temperature.

[3] = test system: E. coli; test: Antimicrobial efficacy (European Pharmacopoeia 2000, Chapter 5.1.3); type: cell-based
Experimental: (§1) The antimicrobial efficacy was tested for three different solutions: […] iii) a carbonate buffer control. The tests were performed according to European Pharmacopoeia 2000, Chapter 5.1.3, pages 259 to 260. Seven 10 ml vials were inoculated, one per test organism. During the tests, the vials were stored at controlled room temperature and protected from light. At different time intervals, samples were withdrawn and after appropriate dilutions the numbers of viable microorganisms (colony forming units per ml, CFU/ml) were determined using standard plate count procedures.

[4] = test system: E. gergoviae; test: as above; type: cell-based; conditions: for Number of CFUs per ml - Time after Inoculation: E. gergoviae
Experimental: as §1

[5] = test system: S. aureus; test: as above; type: cell-based
Experimental: as §1

[6] = Shelf life of the preferred concentrate formulation; type: physicochemical; conditions: 400 mg/ml, 5 to 50 mM disodium hydrogen phosphate, pH 8.5, nitrogen purged, sealed 20 ml vials
[7] = 7.5 mg/ml buffered (sodium hydrogen carbonate), 0 hours
[8] = 7.5 mg/ml buffered (sodium hydrogen carbonate), 48 hours
[9] = 75 mg/ml buffered (sodium hydrogen carbonate), 0 hours
[10] = 75 mg/ml buffered (sodium hydrogen carbonate), 48 hours
[11] = 150 mg/ml buffered (sodium hydrogen carbonate), 0 hours
[12] = 150 mg/ml buffered (sodium hydrogen carbonate), 48 hours

CC(C)(C)[N+]([O-])=Cc1ccc(S(=O)(=O)[O-])cc1S(=O)(=O)[O-].[Na+].[Na+] [α-(2,4-disulfophenyl)-N-tert-butylnitrone disodium salt]
Initial aldehyde (II) ([1]; 5.3 mM phosphate, initial): 0.25 area %
Initial related substances ([1]; 5.3 mM phosphate, initial): 0.56 area %
Final Amount of Aldehyde (II) ([1]; 0% air in purge gas): 0.57 area %
Final Amount of Related Substances ([1]; 0% air in purge gas): 1.3 area %
Final Amount of Aldehyde (II) ([1]; 6.25% air in purge gas): 0.68 ± 0.08 (n = 2) area %
Final Amount of Related Substances ([1]; 6.25% air in purge gas): 1.5 ± 0.1 (n = 2) area %
Final Amount of Aldehyde (II) ([1]; 12.5% air in purge gas): 0.63 ± 0.01 (n = 2) area %
Final Amount of Related Substances ([1]; 12.5% air in purge gas): 1.4 area %
Final Amount of Aldehyde (II) ([1]; 25% air in purge gas): 0.77 area %
Final Amount of Related Substances ([1]; 25% air in purge gas): 1.6 area %
Final Amount of Aldehyde (II) ([1]; 50% air in purge gas): 0.93 area %
Final Amount of Related Substances ([1]; 50% air in purge gas): 1.9 area %
Final Amount of Aldehyde (II) ([1]; 100% air in purge gas): 1.27 area %
Final Amount of Related Substances ([1]; 100% air in purge gas): 2.4 area %
Amount of Aldehyde (II) [2, 7]: 0.6 Area %
pH [2, 7]: 8.1
Amount of Aldehyde (II) [2, 8]: 0.7 Area %
pH [2, 8]: 8.7
Amount of Aldehyde (II) ([2]; 7.5 mg/ml unbuffered, 0 hours): 1.0 Area %
pH ([2]; 7.5 mg/ml unbuffered, 0 hours): 5.8
Amount of Aldehyde (II) ([2]; 7.5 mg/ml unbuffered, 48 hours): 2.4 Area %
pH ([2]; 7.5 mg/ml unbuffered, 48 hours): 6.3
Amount of Aldehyde (II) [2, 9]: 0.6 Area %
pH [2, 9]: 8.0
Amount of Aldehyde (II) [2, 10]: 0.7 Area %
pH [2, 10]: 8.1
Amount of Aldehyde (II) ([2]; 75 mg/ml unbuffered, 0 hours): 1.1 Area %
pH ([2]; 75 mg/ml unbuffered, 0 hours): 6.1
Amount of Aldehyde (II) ([2]; 75 mg/ml unbuffered, 48 hours): 1.9 Area %
pH ([2]; 75 mg/ml unbuffered, 48 hours): 6.7
Amount of Aldehyde (II) [2, 11]: 0.6 Area %
pH [2, 11]: 7.9
Amount of Aldehyde (II) [2, 12]: 0.7 Area %
pH [2, 12]: 7.8
Amount of Aldehyde (II) ([2]; 150 mg/ml unbuffered, 0 hours): 1.0 Area %
pH ([2]; 150 mg/ml unbuffered, 0 hours): 6.1
Amount of Aldehyde (II) ([2]; 150 mg/ml unbuffered, 48 hours): 1.7 Area %
pH ([2]; 150 mg/ml unbuffered, 48 hours): 6.7
Number of CFUs per ml - Time after Inoculation ([3]; 10 mg/ml, 6 h): 9.0 × 10^5 CFUs per ml
Number of CFUs per ml - Time after Inoculation ([3]; 10 mg/ml, 24 h): 5.0 × 10^4 CFUs per ml
Number of CFUs per ml - Time after Inoculation ([3]; 10 mg/ml, 48 h): ≦10 CFUs per ml
Number of CFUs per ml - Time after Inoculation ([3]; 10 mg/ml, 7 days): <1 CFUs per ml
Number of CFUs per ml - Time after Inoculation ([3]; 10 mg/ml, 14 days): <1 CFUs per ml
Number of CFUs per ml - Time after Inoculation ([3]; 10 mg/ml, 21 days): <1 CFUs per ml
Number of CFUs per ml - Time after Inoculation ([3]; 10 mg/ml, 28 days): <1 CFUs per ml
Number of CFUs per ml - Time after Inoculation ([3]; 10 mg/ml, <1 min): 1.5 × 10^6 CFUs per ml
Number of CFUs per ml - Time after Inoculation ([3]; 400 mg/ml, 6 h): 4.1 × 10^4 CFUs per ml
Number of CFUs per ml - Time after Inoculation ([3]; 400 mg/ml, 24 h): <1 CFUs per ml
Number of CFUs per ml - Time after Inoculation ([3]; 400 mg/ml, 48 h): <1 CFUs per ml
Number of CFUs per ml - Time after Inoculation ([3]; 400 mg/ml, 7 days): <1 CFUs per ml
Number of CFUs per ml - Time after Inoculation ([3]; 400 mg/ml, 14 days): <1 CFUs per ml
Number of CFUs per ml - Time after Inoculation ([3]; 400 mg/ml, 21 days): <1 CFUs per ml
Number of CFUs per ml - Time after Inoculation ([3]; 400 mg/ml, 28 days): <1 CFUs per ml
Number of CFUs per ml - Time after Inoculation ([3]; 400 mg/ml, <1 min): 3.8 × 10^5 CFUs per ml
Number of CFUs per ml - Time after Inoculation ([4]; 10 mg/ml, 6 h): 2.0 × 10^5 CFUs per ml
Number of CFUs per ml - Time after Inoculation ([4]; 10 mg/ml, 24 h): ≦10 CFUs per ml
Number of CFUs per ml - Time after Inoculation ([4]; 10 mg/ml, 48 h): <1 CFUs per ml
Number of CFUs per ml - Time after Inoculation ([4]; 10 mg/ml, 7 days): <1 CFUs per ml
Number of CFUs per ml - Time after Inoculation ([4]; 10 mg/ml, 14 days): <1 CFUs per ml
Number of CFUs per ml - Time after Inoculation ([4]; 10 mg/ml, 21 days): <1 CFUs per ml
Number of CFUs per ml - Time after Inoculation ([4]; 10 mg/ml, 28 days): <1 CFUs per ml
Number of CFUs per ml - Time after Inoculation ([4]; 10 mg/ml, <1 min): 8.0 × 10^5 CFUs per ml
Reduction in colony forming units per ml (CFU/ml) ([4]; 400 mg/ml, E. gergovia, within 6 hours): ≥ 10^3 fold
Number of CFUs per ml - Time after Inoculation ([4]; 400 mg/ml, 6 h): 1.3 × 10^2 CFUs per ml
Number of CFUs per ml - Time after Inoculation ([4]; 400 mg/ml, 24 h): <1 CFUs per ml
Number of CFUs per ml - Time after Inoculation ([4]; 400 mg/ml, 48 h): <1 CFUs per ml
Number of CFUs per ml - Time after Inoculation ([4]; 400 mg/ml, 7 days): <1 CFUs per ml
Number of CFUs per ml - Time after Inoculation ([4]; 400 mg/ml, 14 days): <1 CFUs per ml
Number of CFUs per ml - Time after Inoculation ([4]; 400 mg/ml, 21 days): <1 CFUs per ml
Number of CFUs per ml - Time after Inoculation ([4]; 400 mg/ml, 28 days): <1 CFUs per ml
Number of CFUs per ml - Time after Inoculation ([4]; 400 mg/ml, <1 min): 5.2 × 10^5 CFUs per ml
Number of CFUs per ml - Time after Inoculation ([5]; 10 mg/ml, 6 h): 4.5 × 10^5 CFUs per ml
Number of CFUs per ml - Time after Inoculation ([5]; 10 mg/ml, 24 h): 4.5 × 10^3 CFUs per ml
Number of CFUs per ml - Time after Inoculation ([5]; 10 mg/ml, 48 h): ≦10 CFUs per ml
Number of CFUs per ml - Time after Inoculation ([5]; 10 mg/ml, 7 days): <1 CFUs per ml
Number of CFUs per ml - Time after Inoculation ([5]; 10 mg/ml, 14 days): <1 CFUs per ml
Number of CFUs per ml - Time after Inoculation ([5]; 10 mg/ml, 21 days): <1 CFUs per ml
Number of CFUs per ml - Time after Inoculation ([5]; 10 mg/ml, 28 days): <1 CFUs per ml
Number of CFUs per ml - Time after Inoculation ([5]; 10 mg/ml, <1 min): 2.0 × 10^6 CFUs per ml
Number of CFUs per ml - Time after Inoculation ([5]; 400 mg/ml, 6 h): 6.7 × 10^5 CFUs per ml
Number of CFUs per ml - Time after Inoculation ([5]; 400 mg/ml, 24 h): 8.7 × 10^2 CFUs per ml
Number of CFUs per ml - Time after Inoculation ([5]; 400 mg/ml, 48 h): 3.8 × 10^2 CFUs per ml
Number of CFUs per ml - Time after Inoculation ([5]; 400 mg/ml, 7 days): <1 CFUs per ml
Number of CFUs per ml - Time after Inoculation ([5]; 400 mg/ml, 14 days): <1 CFUs per ml
Number of CFUs per ml - Time after Inoculation ([5]; 400 mg/ml, 21 days): <1 CFUs per ml
Number of CFUs per ml - Time after Inoculation ([5]; 400 mg/ml, 28 days): <1 CFUs per ml
Number of CFUs per ml - Time after Inoculation ([5]; 400 mg/ml, <1 min): 3.3 × 10^6 CFUs per ml
Remains in useable condition ([6]; stored at room temperature): at least 6 months
Shelf life ([6]; stored refrigerated (approximately 2 to 8° C.)): at least 24 months
